Experimental data from US20220081412A1, “QUINOLINYL-PYRAZINE-CARBOXAMIDE COMPOUNDS AND USES THEREOF” (The Regents of the University of Michigan, priority 2018, published 2022).

System: NCI60 cell lines
Assay: NCI60 cell line panel
Type: cell-based, human
Method: The Developmental Therapeutics Program (DTP) of NCI has evaluated more than 100,000 pure compounds and more than 34,000 crude extracts against the panel of human tumor cell lines. The resultant data are analyzed using a program called COMPARE, that rank the entire database of tested compounds in the order of the similarity of the responses. […] Thus, the NCI60 databases is highly useful to the cancer research community. Further experiments were conducted that tested some of the active compounds in a panel of NCI60 cell line to relate our compounds with some known inhibitors to have an idea of possible mechanism of action.
In order to understand the selectivity of these compounds in different cancer types, some of them were tested against a panel of 60 cell lines (Table XXXIX).

[1] = Non-Small Cell Lung Cancer, A549/ATCC
[2] = Non-Small Cell Lung Cancer, EKVX
[3] = Non-Small Cell Lung Cancer, HOP-62
[4] = Non-Small Cell Lung Cancer, HOP-92
[5] = Non-Small Cell Lung Cancer, NCI-H23
[6] = Non-Small Cell Lung Cancer, NCI-H226
[7] = Non-Small Cell Lung Cancer, NCI-H322M
[8] = Non-Small Cell Lung Cancer, NCI-H460
[9] = Non-Small Cell Lung Cancer, NCI-H522

For CCN(CC)CCCC(C)Nc1cnc(C(=O)Nc2cc(F)cc3cccnc23)cn1 (stereo not shown) [J17, 5-((5-(diethylamino)pentan-2-yl)amino)-N-(6-fluoroquinolin-8-yl)pyrazine-2-carboxamide], the “GIPRCNT: % Growth inhibition” value (Breast Cancer, BT-549) was 77.38%, the “GIPRCNT: % Growth inhibition” value (Breast Cancer, HS 578T) was 69.28% and the “GIPRCNT: % Growth inhibition” value (Breast Cancer, MCF7) was 2.311%. The “GIPRCNT: % Growth inhibition” value (Breast Cancer, MDA-MB-231/ATCC) was 59.42%, the “GIPRCNT: % Growth inhibition” value (Breast Cancer, MDA-MB-468) was 6.238% and the “GIPRCNT: % Growth inhibition” value (Breast Cancer, T-47D) was 14.34%. The “GIPRCNT: % Growth inhibition” value (CNS Cancer, SF-268) was 51.93%, the “GIPRCNT: % Growth inhibition” value (CNS Cancer, SF-295) was 71.23% and the “GIPRCNT: % Growth inhibition” value (CNS Cancer, SF-539) was 83.12%. The “GIPRCNT: % Growth inhibition” value (CNS Cancer, SNB-19) was 83.09%, the “GIPRCNT: % Growth inhibition” value (CNS Cancer, SNB-75) was 65.6595% and the “GIPRCNT: % Growth inhibition” value (CNS Cancer, U251) was 50.2764%. The “GIPRCNT: % Growth inhibition” value (Colon Cancer, COLO 205) was 3.108%, the “GIPRCNT: % Growth inhibition” value (Colon Cancer, HCC-2998) was 66.69% and the “GIPRCNT: % Growth inhibition” value (Colon Cancer, HCT-15) was 24.5%. The “GIPRCNT: % Growth inhibition” value (Colon Cancer, HCT-116) was 9.52%, the “GIPRCNT: % Growth inhibition” value (Colon Cancer, HT29) was 11.8% and the “GIPRCNT: % Growth inhibition” value (Colon Cancer, KM12) was 75.34%. For the same compound, the “GIPRCNT: % Growth inhibition” value (Colon Cancer, SW-620) was 24.3%, the “GIPRCNT: % Growth inhibition” value (Leukemia, CCRF-CEM) was 19.66% and the “GIPRCNT: % Growth inhibition” value (Leukemia, HL-60(TB)) was 85.54%. The “GIPRCNT: % Growth inhibition” value (Leukemia, K-562) was 3.946%, the “GIPRCNT: % Growth inhibition” value (Leukemia, MOLT-4) was 21.9615% and the “GIPRCNT: % Growth inhibition” value (Leukemia, RPMI-8226) was 75.09%. The “GIPRCNT: % Growth inhibition” value (Leukemia, SR) was 2.839%, the “GIPRCNT: % Growth inhibition” value (Melanoma, LOX IMVI) was 33.27% and the “GIPRCNT: % Growth inhibition” value (Melanoma, M14) was 21.9%. For the same compound, the “GIPRCNT: % Growth inhibition” value (Melanoma, MALME-3M) was −8.343%, the “GIPRCNT: % Growth inhibition” value (Melanoma, MDA-MB-435) was 25.54% and the “GIPRCNT: % Growth inhibition” value (Melanoma, SK-MEL-2) was 96.72%. The “GIPRCNT: % Growth inhibition” value (Melanoma, SK-MEL-5) was 69.98%, the “GIPRCNT: % Growth inhibition” value (Melanoma, UACC-62) was 0.9972% and the “GIPRCNT: % Growth inhibition” value (Melanoma, UACC-257) was 76.77%. For the same compound, the “GIPRCNT: % Growth inhibition” value [1] was 58.01%, the “GIPRCNT: % Growth inhibition” value [2] was 73.3% and the “GIPRCNT: % Growth inhibition” value [3] was 64.08%. For the same compound, the “GIPRCNT: % Growth inhibition” value [4] was 37.52%, the “GIPRCNT: % Growth inhibition” value [5] was 81.37% and the “GIPRCNT: % Growth inhibition” value [6] was 85.09%. The “GIPRCNT: % Growth inhibition” value [7] was 63.8%, the “GIPRCNT: % Growth inhibition” value [8] was 69.55% and the “GIPRCNT: % Growth inhibition” value [9] was 52.69%. The “GIPRCNT: % Growth inhibition” value (Ovarian Cancer, IGROV1) was 41.74%, the “GIPRCNT: % Growth inhibition” value (Ovarian Cancer, NCI/ADR-RES) was 66.76% and the “GIPRCNT: % Growth inhibition” value (Ovarian Cancer, OVCAR-3) was 5.413%. For the same compound, the “GIPRCNT: % Growth inhibition” value (Ovarian Cancer, OVCAR-4) was 12.24%, the “GIPRCNT: % Growth inhibition” value (Ovarian Cancer, OVCAR-5) was 77.12% and the “GIPRCNT: % Growth inhibition” value (Ovarian Cancer, OVCAR-8) was 60.52%. For the same compound, the “GIPRCNT: % Growth inhibition” value (Ovarian Cancer, SK-OV-3) was 98.32%, the “GIPRCNT: % Growth inhibition” value (Prostate Cancer, DU-145) was 63.3% and the “GIPRCNT: % Growth inhibition” value (Prostate Cancer, PC-3) was 60.96%. The “GIPRCNT: % Growth inhibition” value (Renal Cancer, 786-0) was 68.3555%, the “GIPRCNT: % Growth inhibition” value (Renal Cancer, A498) was 62.97% and the “GIPRCNT: % Growth inhibition” value (Renal Cancer, ACHN) was 36.59%. For the same compound, the “GIPRCNT: % Growth inhibition” value (Renal Cancer, CAKI-1) was 36.66%, the “GIPRCNT: % Growth inhibition” value (Renal Cancer, RXF 393) was 33.77% and the “GIPRCNT: % Growth inhibition” value (Renal Cancer, SN12C) was 54.47%. The “GIPRCNT: % Growth inhibition” value (Renal Cancer, TK-10) was 63.68% and the “GIPRCNT: % Growth inhibition” value (Renal Cancer, UO-31) was 29.1%.

In the case of CCN(CC)CCCC(C)Nc1cnc(C(=O)Nc2cccc3ccc(OC)nc23)cn1 (stereo not shown) [J11, 5-((5-(diethylamino)pentan-2-yl)amino)-N-(2-methoxyquinolin-8-yl)pyrazine-2-carboxamide], the “GIPRCNT: % Growth inhibition” value (Breast Cancer, BT-549) is reported as 83.22%, the “GIPRCNT: % Growth inhibition” value (Breast Cancer, HS 578T) is reported as 69.51% and the “GIPRCNT: % Growth inhibition” value (Breast Cancer, MCF7) is reported as 20.06%. The “GIPRCNT: % Growth inhibition” value (Breast Cancer, MDA-MB-231/ATCC) was 71.85%, the “GIPRCNT: % Growth inhibition” value (Breast Cancer, MDA-MB-468) was 79.15% and the “GIPRCNT: % Growth inhibition” value (Breast Cancer, T-47D) was 83.88%. The “GIPRCNT: % Growth inhibition” value (CNS Cancer, SF-268) was 63.03%, the “GIPRCNT: % Growth inhibition” value (CNS Cancer, SF-295) was 100.8191% and the “GIPRCNT: % Growth inhibition” value (CNS Cancer, SF-539) was 0.4567%. The “GIPRCNT: % Growth inhibition” value (CNS Cancer, SNB-19) was 94.85%, the “GIPRCNT: % Growth inhibition” value (CNS Cancer, SNB-75) was 75.89% and the “GIPRCNT: % Growth inhibition” value (CNS Cancer, U251) was 56.1223%. The “GIPRCNT: % Growth inhibition” value (Colon Cancer, COLO 205) was 71.37%, the “GIPRCNT: % Growth inhibition” value (Colon Cancer, HCC-2998) was 90.92% and the “GIPRCNT: % Growth inhibition” value (Colon Cancer, HCT-15) was −25.625%. For the same compound, the “GIPRCNT: % Growth inhibition” value (Colon Cancer, HCT-116) was −36.0085%, the “GIPRCNT: % Growth inhibition” value (Colon Cancer, HT29) was −47.1759% and the “GIPRCNT: % Growth inhibition” value (Colon Cancer, KM12) was 36.32%. For the same compound, the “GIPRCNT: % Growth inhibition” value (Colon Cancer, SW-620) was 2.118%, the “GIPRCNT: % Growth inhibition” value (Leukemia, CCRF-CEM) was −7.649% and the “GIPRCNT: % Growth inhibition” value (Leukemia, HL-60(TB)) was 72.3913%. The “GIPRCNT: % Growth inhibition” value (Leukemia, K-562) was −57.0747%, the “GIPRCNT: % Growth inhibition” value (Leukemia, MOLT-4) was 53.43% and the “GIPRCNT: % Growth inhibition” value (Leukemia, RPMI-8226) was 23.8%. For the same compound, the “GIPRCNT: % Growth inhibition” value (Leukemia, SR) was −5.71%, the “GIPRCNT: % Growth inhibition” value (Melanoma, LOX IMVI) was −89.8952% and the “GIPRCNT: % Growth inhibition” value (Melanoma, M14) was −75.6475%. For the same compound, the “GIPRCNT: % Growth inhibition” value (Melanoma, MALME-3M) was −69.7804%, the “GIPRCNT: % Growth inhibition” value (Melanoma, MDA-MB-435) was −58.2282% and the “GIPRCNT: % Growth inhibition” value (Melanoma, SK-MEL-2) was 70.47%. The “GIPRCNT: % Growth inhibition” value (Melanoma, SK-MEL-5) was 5.402%, the “GIPRCNT: % Growth inhibition” value (Melanoma, UACC-62) was −57.758% and the “GIPRCNT: % Growth inhibition” value (Melanoma, UACC-257) was −39.0086%. The “GIPRCNT: % Growth inhibition” value [1] was 81.18%, the “GIPRCNT: % Growth inhibition” value [2] was 104.0141% and the “GIPRCNT: % Growth inhibition” value [3] was 94.18%. For the same compound, the “GIPRCNT: % Growth inhibition” value [4] was 49.4978%, the “GIPRCNT: % Growth inhibition” value [5] was 96.1% and the “GIPRCNT: % Growth inhibition” value [6] was 61.44%. The “GIPRCNT: % Growth inhibition” value [7] was 75.47%, the “GIPRCNT: % Growth inhibition” value [8] was 1.048% and the “GIPRCNT: % Growth inhibition” value [9] was 5.069%. The “GIPRCNT: % Growth inhibition” value (Ovarian Cancer, IGROV1) was 78.33%, the “GIPRCNT: % Growth inhibition” value (Ovarian Cancer, NCI/ADR-RES) was 76.12% and the “GIPRCNT: % Growth inhibition” value (Ovarian Cancer, OVCAR-3) was −30.7372%. The “GIPRCNT: % Growth inhibition” value (Ovarian Cancer, OVCAR-4) was 98.13%, the “GIPRCNT: % Growth inhibition” value (Ovarian Cancer, OVCAR-5) was 91.29% and the “GIPRCNT: % Growth inhibition” value (Ovarian Cancer, OVCAR-8) was 68.24%. For the same compound, the “GIPRCNT: % Growth inhibition” value (Ovarian Cancer, SK-OV-3) was 86.95%, the “GIPRCNT: % Growth inhibition” value (Prostate Cancer, DU-145) was 78.79% and the “GIPRCNT: % Growth inhibition” value (Prostate Cancer, PC-3) was 69.52%. For the same compound, the “GIPRCNT: % Growth inhibition” value (Renal Cancer, 786-0) was 73.41%, the “GIPRCNT: % Growth inhibition” value (Renal Cancer, A498) was 46.17% and the “GIPRCNT: % Growth inhibition” value (Renal Cancer, ACHN) was −86.4619%. The “GIPRCNT: % Growth inhibition” value (Renal Cancer, CAKI-1) was 94.69%, the “GIPRCNT: % Growth inhibition” value (Renal Cancer, RXF 393) was 45.96% and the “GIPRCNT: % Growth inhibition” value (Renal Cancer, SN12C) was 78.47%. For the same compound, the “GIPRCNT: % Growth inhibition” value (Renal Cancer, TK-10) was 90.98% and the “GIPRCNT: % Growth inhibition” value (Renal Cancer, UO-31) was 69.07%.
